Results: paper PMC6718478, “A Comprehensive Antimicrobial Activity Evaluation of the Recombinant Microcin J25 Against the Foodborne Pathogens Salmonella and E. coli O157:H7 by Using a Matrix of Conditions” (Frontiers in Microbiology, 2019)
Positions of bridges follow the written chain, without caps; N, C: chain ends. Residues, ends and D or L forms follow the SMILES beside them.

Assays:
S. Typhimurium ATCC14082 = test: Antimicrobial activity (killing) curves; assay type: cell-based, Salmonella Typhimurium; settings: 4 × MIC; log phase, ~5 × 10^4 CFU/mL in LB, 37°C; plate counts at 0, 2, 4, 6 h; n = 6
Method: (§1) To further address the activity of recombinant MccJ25, antimicrobial activity curves and Live/Dead viability assay were performed. A single colony of S. Pullorum CVCC1791, S. Typhimurium ATCC14082, and E. coli O157:H7 was inoculated into 5 mL of LB. The culture was then incubated at 37°C with shaking at 200 rpm overnight. The following day, the culture was diluted 1:100 in fresh LB and again incubated at 37°C with shaking at 200 rpm. For antimicrobial activity, the bacteria were grown until they reached log phase. Approximately 5 × 10^4 CFU/mL bacteria were inoculated into 2 mL of LB containing different concentrations of the recombinant MccJ25 (0, 1 × MIC, 2 × MIC, and 4 × MIC). The cultures (0.1 mL) were serially diluted with PBS and plated on LB and TSA agar at 0, 2, 4, and 6 h. The plates were incubated at 37°C overnight to count colony. Colonies were counted to determine CFU/mL. The experiment was conducted with two replicates in three independent trials.

S. Typhimurium [1] = test: Live/Dead BacLight viability assay; assay type: cell-based, Salmonella Typhimurium; settings: at the MIC level, 2 h at 37°C, 5 × 10^4 CFU/mL in LB; fluorescence microscopy
Method: A Live/Dead BacLight Bacterial Viability Kit 7 (Molecular Probes, Inc., Eugene) was used to test bacterial viability. Briefly, 5 × 10^4 CFU/mL S. Pullorum, S. Typhimurium, and E. coli O157:H7 were inoculated into 1 mL of LB containing recombinant MccJ25 at the MIC level specific for each pathogen. Bacterial cultures were incubated at 37°C for 2 h and then incubated in the dark at ambient temperature with SYTO 9 and propidium iodide for 15 min. Bacteria were observed using a fluorescence microscope (EVOS XL Cell Imaging System).

IPEC-J2 cells = test: Salmonella-induced damage to IPEC-J2 cells (TEER, FD4, LDH); assay type: cell-based; settings: 2 μg/mL for 6 h, Salmonella for 2 h; n = 9
Method: FIGURE S2 | Recombinant MccJ25 inhibited Salmonella-induced damage to IPEC-J2 cells. IPEC-J2 cells were cultured with or without recombinant MccJ25 (2 μg/mL) for 6 h in the absence or presence of Salmonella for 2 h. TEER (A), FD4 level (B), and LDH activity (C) in the IPEC-J2 cells were determined. Data are the means ± SEMs of three independent experiments, n = 9. Different superscript lowercase letters within each group indicate significant differences (P < 0.05); The asterisk denotes a significant difference in comparison with the control group (*P < 0.05, **P < 0.01).

S. Typhimurium [2] = test: Antimicrobial activity in different growth phases, viable plate counting; assay type: cell-based, Salmonella Typhimurium; settings: LB, plate counts, n = 6; for time within which bacteria were killed: early and late-log phase cells
Method: The effect of growth phase on the anti-Salmonella and -E. coli O157:H7 activity of recombinant MccJ25 was determined by the viable plate counting method, as described previously ([Ma et al., 2016]; [Fan et al., 2017]), with minor modifications. Cultures of the strains in the early-log phase, late-log phase and stationary phase were washed, concentrated and diluted with sterilized phosphate-buffered saline (PBS) to approximately 10^7 CFU/mL. Then, 1 mL was incubated individually in 9 mL of PBS to reach an approximate 10^6 CFU/mL final concentration. The bacterial cells were then inoculated into 5 mL of LB containing different concentrations of MccJ25 (0, 1 × MIC, 2 × MIC, and 4 × MIC). At 0, 12, 24, and 48 h post incubation, the cultures (0.1 mL) were serially diluted with PBS and plated on LB and TSA agar. The plates were incubated at 37°C overnight to count colony. Colonies were counted to determine CFU/mL. The experiment was conducted with two replicates in three independent trials.

S. Pullorum CVCC1791 = test: Antimicrobial activity (killing) curves; assay type: cell-based, Salmonella Pullorum
Method: as §1, with “The cultures (0.1 mL) were serially diluted with PBS and plated on LB and TSA agar at 0, 2, 4, and 6 h.” left out

In the case of `CC[C@H](C)[C@H](NC(=O)CNC(=O)[C@@H](NC(=O)[C@H](Cc1ccccc1)NC(=O)[C@H](Cc1ccc(O)cc1)NC(=O)[C@@H]1CCC(=O)NCC(=O)NCC(=O)N[C@@H](C)C(=O)NCC(=O)N[C@@H](Cc2c[nH]cn2)C(=O)N[C@@H](C(C)C)C(=O)N2CCC[C@H]2C(=O)N1)C(C)C)C(=O)NCC(=O)N[C@H](C(=O)N1CCC[C@H]1C(=O)N[C@H](C(=O)N[C@@H](CO)C(=O)N[C@@H](Cc1ccccc1)C(=O)N[C@@H](Cc1ccc(O)cc1)C(=O)NCC(=O)O)[C@@H](C)CC)[C@@H](C)O` [recombinant MccJ25, microcin J25] (GGAGHVPEYFVGIGTPISFYG-OH; lactam N-8 (inferred); C-terminus assumed), the “incubation time after which the pathogen was eliminated (killing curve)” value (S. Typhimurium ATCC14082) is reported as 6 h, the “bactericidal activity, Live/Dead staining (SYTO 9 / propidium iodide)” value (S. Typhimurium [1]) is reported as “excellent bactericidal activity” and the “S. Pullorum-induced decrease in TEER” value (IPEC-J2 cells) is reported as “attenuated”. The “S. Pullorum-induced increase in FD4 level” value (IPEC-J2 cells) was “attenuated”, the “S. Pullorum-induced increase in LDH level” value (IPEC-J2 cells) was “attenuated” and the “time within which bacteria were killed” value (S. Typhimurium [2]; 2 × MIC) was no more than 48 h. For the same compound, the “time within which bacteria were killed” value (S. Typhimurium [2]; 4 × MIC) was no more than 24 h, the “time to reduction to non-detectable levels” value (S. Typhimurium [2]; stationary phase cells, 4 × MIC) was 48 h and the “regrowth in killing curve” value (S. Pullorum CVCC1791; 1 × MIC, after 8 h of incubation) was “did not exhibit regrowth”. The “incubation time after which all bacteria were killed (killing curve)” value (S. Pullorum CVCC1791; 1 × MIC, log phase, ~5 × 10^4 CFU/mL in LB, 37°C, plate counts, n = 6) was 4 h and the “incubation time after which the pathogen was eliminated (killing curve)” value (S. Pullorum CVCC1791; 4 × MIC, log phase, ~5 × 10^4 CFU/mL in LB, 37°C, plate counts at 0, 2, 4, 6 h, n = 6) was 6 h.
